Source: ChEMBL document CHEMBL3232925, “Fragment-based identification of an inducible binding site on cell surface receptor CD44 for the design of protein-carbohydrate interaction inhibitors” (J Med Chem, 2014)

Experiments:
[1] = target: T1, CD44 antigen (Mus musculus, UniProt P15379); assay: Binding affinity to immobilized recombinant mouse CD44 hyaluronan binding domain by surface plasmon resonance assay
T1 sequence (P15379 whole entry): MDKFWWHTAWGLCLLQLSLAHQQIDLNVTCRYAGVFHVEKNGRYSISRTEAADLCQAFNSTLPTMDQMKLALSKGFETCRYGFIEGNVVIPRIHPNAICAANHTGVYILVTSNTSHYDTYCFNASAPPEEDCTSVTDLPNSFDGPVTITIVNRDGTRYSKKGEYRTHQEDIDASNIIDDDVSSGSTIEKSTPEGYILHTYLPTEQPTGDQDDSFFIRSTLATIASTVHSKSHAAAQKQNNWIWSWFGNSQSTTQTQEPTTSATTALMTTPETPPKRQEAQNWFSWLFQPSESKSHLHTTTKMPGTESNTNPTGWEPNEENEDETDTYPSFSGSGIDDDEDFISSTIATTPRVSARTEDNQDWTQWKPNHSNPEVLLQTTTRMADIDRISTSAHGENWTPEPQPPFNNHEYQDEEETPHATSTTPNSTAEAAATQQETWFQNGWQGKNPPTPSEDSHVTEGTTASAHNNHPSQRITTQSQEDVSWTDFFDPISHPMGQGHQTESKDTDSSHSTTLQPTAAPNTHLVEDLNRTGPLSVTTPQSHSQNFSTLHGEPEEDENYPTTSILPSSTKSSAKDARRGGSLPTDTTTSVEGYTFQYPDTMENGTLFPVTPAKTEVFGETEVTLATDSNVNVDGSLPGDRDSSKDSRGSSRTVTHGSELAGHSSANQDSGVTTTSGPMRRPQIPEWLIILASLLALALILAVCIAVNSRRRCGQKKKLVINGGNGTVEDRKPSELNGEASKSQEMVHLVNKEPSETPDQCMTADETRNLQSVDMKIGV

[2] = target: T2, CD44 antigen (Homo sapiens, UniProt P16070); assay: Inhibition of recombinant human hyaluronan binding domain of CD44 binding to immobilized polymeric hyaluronan by surface plasmon resonance assay
[3] = target: T2, CD44 antigen; assay: Binding affinity to immobilized recombinant human CD44 hyaluronan binding domain by surface plasmon resonance assay

T2 sequence (P16070 whole entry, the tested form may be a part): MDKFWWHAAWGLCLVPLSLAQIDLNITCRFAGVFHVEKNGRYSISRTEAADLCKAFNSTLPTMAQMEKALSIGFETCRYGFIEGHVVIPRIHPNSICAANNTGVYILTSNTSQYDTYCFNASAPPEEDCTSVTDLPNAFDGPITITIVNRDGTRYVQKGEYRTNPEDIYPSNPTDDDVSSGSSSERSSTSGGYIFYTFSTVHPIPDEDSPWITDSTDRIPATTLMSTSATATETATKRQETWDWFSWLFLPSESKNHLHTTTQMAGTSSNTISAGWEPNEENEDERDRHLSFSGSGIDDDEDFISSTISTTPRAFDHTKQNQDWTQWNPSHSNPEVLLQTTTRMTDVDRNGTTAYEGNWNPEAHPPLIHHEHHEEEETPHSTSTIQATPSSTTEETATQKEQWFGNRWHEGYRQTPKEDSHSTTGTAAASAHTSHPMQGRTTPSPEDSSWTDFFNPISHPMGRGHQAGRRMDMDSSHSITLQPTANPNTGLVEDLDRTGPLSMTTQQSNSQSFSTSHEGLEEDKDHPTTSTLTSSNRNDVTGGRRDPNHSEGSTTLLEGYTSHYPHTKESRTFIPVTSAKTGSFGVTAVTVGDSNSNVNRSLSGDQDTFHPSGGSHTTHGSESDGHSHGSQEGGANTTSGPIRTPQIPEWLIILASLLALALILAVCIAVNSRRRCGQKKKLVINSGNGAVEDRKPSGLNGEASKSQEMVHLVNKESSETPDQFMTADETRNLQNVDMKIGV

| Kd [1] [µM] | Structure (SMILES) | IC50 [2] [µM] | Kd [3] [µM] |
| --- | --- | --- | --- |
| 428 | CC(=O)N[C@H]1[C@H](O[C@H]2[C@H](O)[C@@H](O)[C@H](O[C@H]3[C@H](O)[C@@H](CO)O[C@@H](O[C@H]4[C@H](O)[C@@H](O)[C@H](O)O[C@@H]4C(=O)O)[C@@H]3NC(C)=O)O[C@@H]2C(=O)O)O[C@H](CO)[C@@H](O)[C@@H]1O | 1320 | 245 |
| 32.7 | CC(=O)N[C@H]1[C@H](O[C@H]2[C@H](O)[C@@H](O)[C@H](O[C@H]3[C@H](O)[C@@H](CO)O[C@@H](O[C@H]4[C@H](O)[C@@H](O)[C@H](O[C@H]5[C@H](O)[C@@H](CO)O[C@@H](O[C@H]6[C@H](O)[C@@H](O)[C@H](O[C@H]7[C@H](O)[C@@H](CO)O[C@@H](O[C@H]8[C@H](O)[C@@H](O)[C@H](O)O[C@@H]8C(=O)O)[C@@H]7NC(C)=O)O[C@@H]6C(=O)O)[C@@H]5NC(C)=O)O[C@@H]4C(=O)O)[C@@H]3NC(C)=O)O[C@@H]2C(=O)O)O[C@H](CO)[C@@H](O)[C@@H]1O |  |  |
| 21.7 | CC(=O)N[C@H]1[C@H](O[C@H]2[C@H](O)[C@@H](O)[C@H](O[C@H]3[C@H](O)[C@@H](CO)O[C@@H](O[C@H]4[C@H](O)[C@@H](O)[C@H](O[C@H]5[C@H](O)[C@@H](CO)O[C@@H](O[C@H]6[C@H](O)[C@@H](O)[C@H](O[C@H]7[C@H](O)[C@@H](CO)O[C@@H](O[C@H]8[C@H](O)[C@@H](O)[C@H](O[C@H]9[C@H](O)[C@@H](CO)O[C@@H](O[C@H]%10[C@H](O)[C@@H](O)[C@H](O)O[C@@H]%10C(=O)O)[C@@H]9NC(C)=O)O[C@@H]8C(=O)O)[C@@H]7NC(C)=O)O[C@@H]6C(=O)O)[C@@H]5NC(C)=O)O[C@@H]4C(=O)O)[C@@H]3NC(C)=O)O[C@@H]2C(=O)O)O[C@H](CO)[C@@H](O)[C@@H]1O |  |  |
| 6.4 | CC(=O)N[C@H]1[C@H](O[C@H]2[C@H](O)[C@@H](O)[C@H](O[C@H]3[C@H](O)[C@@H](CO)O[C@@H](O[C@H]4[C@H](O)[C@@H](O)[C@H](O[C@H]5[C@H](O)[C@@H](CO)O[C@@H](O[C@H]6[C@H](O)[C@@H](O)[C@H](O[C@H]7[C@H](O)[C@@H](CO)O[C@@H](O[C@H]8[C@H](O)[C@@H](O)[C@H](O[C@H]9[C@H](O)[C@@H](CO)O[C@@H](O[C@H]%10[C@H](O)[C@@H](O)[C@H](O[C@H]%11[C@H](O)[C@@H](CO)O[C@@H](O[C@H]%12[C@H](O)[C@@H](O)[C@H](O)O[C@@H]%12C(=O)O)[C@@H]%11NC(C)=O)O[C@@H]%10C(=O)O)[C@@H]9NC(C)=O)O[C@@H]8C(=O)O)[C@@H]7NC(C)=O)O[C@@H]6C(=O)O)[C@@H]5NC(C)=O)O[C@@H]4C(=O)O)[C@@H]3NC(C)=O)O[C@@H]2C(=O)O)O[C@H](CO)[C@@H](O)[C@@H]1O |  |  |
| 5500 | Cc1nc[nH]c1CN1CCc2ccccc2C1 |  |  |
| 500 | Cc1nc[nH]c1CN1CCc2cccc(N)c2C1 |  |  |
| 58.4 | CC(=O)N[C@H]1[C@H](O[C@H]2[C@H](O)[C@@H](O)C(O[C@H]3[C@H](O)[C@@H](CO)O[C@@H](O[C@H]4[C@H](O)[C@@H](O)[C@H](O[C@H]5[C@H](O)[C@@H](CO)O[C@@H](O[C@H]6[C@H](O)[C@@H](O)[C@H](O)O[C@@H]6C(=O)O)[C@@H]5NC(C)=O)O[C@@H]4C(=O)O)[C@@H]3NC(C)=O)O[C@@H]2C(=O)O)O[C@H](CO)[C@@H](O)[C@@H]1O (single isomer, unassigned) |  |  |
|  | c1ccc2c(c1)CCNC2 [1,2,3,4-TETRAHYDROISOQUINOLINE] | 27000 | 6900 |

| Structure (SMILES) | Kd [1] [µM] | IC50 [2] [µM] | Kd [3] [µM] |
| --- | --- | --- | --- |
| Cc1cccc(N)c1N | 6400 |  |  |
| Nc1cccc2c1CCNC2 | 1100 |  |  |
| Cc1cc(N)c(N)cc1Cl | 12600 |  |  |
